Converted amounts (≈) assume the structure as drawn.
Key:
[1] = test system: A549; experiment: Antiproliferative activity against human A549 cells measured after 72 hrs by CCK-8 cells; type: functional, cell-based; settings: A549, 72 h
[2] = test system: HCT-116; experiment: Antiproliferative activity against human HCT116 cells measured after 72 hrs by CCK-8 cells; type: functional, cell-based; settings: HCT-116, 72 h
[3] = test system: U-87 MG; experiment: Antiproliferative activity against human U-87 MG cells measured after 72 hrs by CCK-8 cells; type: functional, cell-based, U-87MG ATCC
[4] = Solubility of the compound in double distilled water measured upto 30 mins by UV-vis spectrophotometry; type: physicochemical
[5] = test system: HCT-116; experiment: Antiproliferative activity against human HCT116 cells in presence of 5 uM phloretin measured after 72 hrs by CCK-8 assay; type: functional, cell-based; settings: HCT-116, 72 h
[6] = Toxicity in mouse xenografted with human HCT-116 cells assessed as liver damage by measuring enlarged sizes of vacuole at 5 mg/kg, ip twice a day administered 21 consecutive days; type: organism-based; settings: in vivo
[7] = Toxicity in mouse xenografted with human HCT-116 cells assessed as kidney damage by measuring atrophy of glomeruli at 5 mg/kg, ip twice a day administered 21 consecutive days; type: organism-based; settings: in vivo
[8] = test system: HCT-116; experiment: Antiproliferative activity against human HCT116 cells in presence of 10 uM phloretin measured after 72 hrs by CCK-8 assay; type: functional, cell-based; settings: HCT-116, 72 h
[9] = Cytotoxicity against HUVEC after 72 hrs by CCK-8 assay; type: toxicity, cell-based; settings: human, HUVEC cells
[10] = Toxicity in mouse xenografted with human HCT-116 cells assessed as organ damage by measuring change in spleen at 5 mg/kg, ip twice a day administered 21 consecutive days; type: organism-based; settings: in vivo
[11] = test system: HCT-116; experiment: In vivo antitumor effect in human HCT-116 cells xenografted mouse model assessed as tumor growth inhibition at 5 mg/kg, ip twice a day administered 21 consecutive days; type: functional; settings: read-out: TGI
[12] = Toxicity in mouse xenografted with human HCT-116 cells assessed as organ damage by measuring thickened alveolar wall in lungs at 5 mg/kg, ip twice a day administered 21 consecutive days; type: organism-based; settings: in vivo
[13] = Toxicity in mouse xenografted with human HCT-116 cells assessed as organ damage by measuring change in heart at 5 mg/kg, ip twice a day administered 21 consecutive days; type: organism-based; settings: in vivo

Row | SMILES | IC50 [1] | IC50 [2] | IC50 [3] | solubility at 0.5 h [4] | IC50 [5] | Activity [6] | Activity [7] | IC50 [8] | IC50 at 72 h [9] | Activity [10] | inhibition in vivo at 5 mg/kg [11] | Activity [12] | Activity [13]
1 | CN1c2ccc(F)cc2C(=O)N2CCc3c([nH]c4ccc(OC(=O)CCC(=O)NCCCO[C@@H]5O[C@H](CO)[C@@H](O)[C@H](O)[C@H]5O)cc34)[C@H]21 | 0.049 µM | 0.049 µM | 0.049 µM | 1990 µg/mL (≈ 3.03 mM) | – | – | – | – | – | – | – | – | –
2 | CN1c2ccc(F)cc2C(=O)N2CCc3c([nH]c4ccc(OCc5cn(CCCO[C@@H]6O[C@H](CO)[C@@H](O)[C@H](O)[C@H]6O)nn5)cc34)[C@H]21 | – | – | – | 2020 µg/mL (≈ 3.16 mM) | – | – | – | – | – | – | – | – | –
3 | CN1c2ccc(F)cc2C(=O)N2CCc3c([nH]c4ccc(O)cc34)[C@H]21 | – | – | – | 145 µg/mL (≈ 0.43 mM) | 0.054 µM | Toxic | Toxic | 0.545 µM | 0.016 µM | Toxic | 51% | Toxic | Toxic
